{"source": "paper PMC10570460", "about": "(Frontiers in Cell and Developmental Biology, 2023)", "target": "T1, PKA regulatory subunit R1Alpha (R1A) (Rattus norvegicus, UniProt P09456)", "T1 construct": "gene Prkar1a; endogenous detergent-insoluble R1A clusters in P30 rat CA1 brain sections", "T1 sequence (P09456 2-381)": "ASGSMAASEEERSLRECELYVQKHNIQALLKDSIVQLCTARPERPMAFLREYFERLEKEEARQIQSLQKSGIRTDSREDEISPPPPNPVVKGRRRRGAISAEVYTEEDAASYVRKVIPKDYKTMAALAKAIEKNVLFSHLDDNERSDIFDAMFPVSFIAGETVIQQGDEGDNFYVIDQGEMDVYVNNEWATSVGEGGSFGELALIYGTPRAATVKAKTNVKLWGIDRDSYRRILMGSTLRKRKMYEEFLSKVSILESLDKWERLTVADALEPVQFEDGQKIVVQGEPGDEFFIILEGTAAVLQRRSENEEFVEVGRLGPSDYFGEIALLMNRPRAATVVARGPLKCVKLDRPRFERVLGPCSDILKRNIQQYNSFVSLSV", "test": "saturation equilibrium binding in fixed brain sections, confocal fluorescence microscopy", "data": [{"smiles": "Nc1ncnc2c1nc(SCC(=O)Nc1ccc3c(c1)C(=O)OC31c3ccc(O)cc3Oc3cc(O)ccc31)n2[C@@H]1O[C@@H]2COP(=O)(O)O[C@H]2[C@H]1O", "note": "[SAF-cAMP, 8-(5-thioacetamidofluorescein)-adenosine 3′,5′-cyclic monophosphate]", "values": [{"measurement": "Kd", "result": 23.5, "unit": "nM"}]}]}
